These results are taken from EP1138682A1, “Novel water soluble c-ring analogues of 20 (s)-camptothecin” (priority 1996, dated 1997).

Where two headings read alike, the source gives them in different places.

Data set [1] relates to NCI's 60 human tumor cell line. Kind of data set: NCI 60 human tumor cell line assay (sulforhodamine B). It is filed as cell-based. The conditions noted are these: read-out: IC50 (the source's name).
Description: Each test compound was screened against a battery of 60 human cell lines obtained from eight organs. In a typical procedure, the cell suspensions that were diluted according to the particular cell type and the expected target cell density (5000-40,000 cells per well based on cell growth characteristics) were added into 96-well microtiter plates. Inoculates were allowed a preincubation period of 24h at 37°C. for stabilization. Dilutions at twice the intended test concentrations were added at time zero in 100-µl aliquots to microtiter plate wells. Usually test compounds were evaluated at five 10-fold dilutions. The highest well concentration used in the test is 10^-4M. The cells are then incubated in the presence of drug (the test compound) for further 48h in 5% CO2 atmosphere and 100% humidity. At the end of this time, the adherent cells are fixed to the plate by means of trichloroacetic acid, and after a number of washes, the cell layer is treated with the protein stain Sulforhodamine B. The optical density which is proportional to protein mass, is then read by automated spectrophotometric plate readers at a wavelength of 515 nm. Readings are transferred to a microcomputer and final reports are generated using especially developed software.
Another data set has as its target Human Serum Albumin (Homo sapiens, UniProt P02768). The conditions noted are these: in the presence of HSA at 37°C; comparison in words; cited from earlier work.
[2] abbreviates: mean value of GI50 (50% cell growth inhibition) over NCI's 60 human tumor cell lines, 48h incubation with drug.

Chain of Human Serum Albumin (P02768 25-609): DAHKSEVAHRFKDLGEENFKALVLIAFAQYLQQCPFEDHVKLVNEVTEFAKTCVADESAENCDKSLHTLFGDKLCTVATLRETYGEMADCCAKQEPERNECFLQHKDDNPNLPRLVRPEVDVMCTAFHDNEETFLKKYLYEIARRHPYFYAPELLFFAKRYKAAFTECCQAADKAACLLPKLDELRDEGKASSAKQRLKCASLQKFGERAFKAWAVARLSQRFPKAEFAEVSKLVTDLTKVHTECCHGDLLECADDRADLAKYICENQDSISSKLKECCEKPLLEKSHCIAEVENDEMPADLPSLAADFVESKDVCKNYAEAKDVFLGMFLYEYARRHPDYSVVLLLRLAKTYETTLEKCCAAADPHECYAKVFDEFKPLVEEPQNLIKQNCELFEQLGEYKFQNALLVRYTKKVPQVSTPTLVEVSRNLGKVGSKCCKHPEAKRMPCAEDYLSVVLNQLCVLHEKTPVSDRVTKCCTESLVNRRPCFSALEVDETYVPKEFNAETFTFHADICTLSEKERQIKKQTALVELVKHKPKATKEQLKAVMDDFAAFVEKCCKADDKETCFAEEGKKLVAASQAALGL

As to “5-(2'-N-pyrrolidinoethoxy)-7-ethylcamptothecin [Example 39]”, the GI50 in data set [1] (setting [2]) came out at 18.6 µM.
With “5-(2'-aminoethoxy)-7-ethylcamptothecin [Example 37]”, the GI50 in data set [1] (setting [2]) worked out at 18.6 µM.
As to `CC[C@@]1(O)C(=O)OCc2c1cc1n(c2=O)C(OCCO)c2cc3c([N+](=O)[O-])cccc3nc2-1` (stereo partly shown) [9-Nitro-5-(2'-hydroxyethoxy)camptothecin], the GI50 in data set [1] (Homo sapiens, 48 h) came out at 7.94 µM.
As to `CCOC1c2cc3c(O)cccc3nc2-c2cc3c(c(=O)n21)COC(=O)[C@]3(O)CC` (stereo partly shown) [Example 11, 5-Ethoxy-9-hydroxycamptothecin], in data set [1] (setting [2]), the GI50 stood at 6.68 µM.
In the case of `CC[C@@]1(O)C(=O)OCc2c1cc1n(c2=O)C(OCC(F)(F)F)c2cc3cc(O)ccc3nc2-1` (stereo partly shown) [Example 27, 10-Hydroxy-5-trifluoroethoxycamptothecin], the GI50 in data set [1] (setting [2]) was 0.38 µM.
With `CC[C@@]1(O)C(=O)OCc2c1cc1n(c2=O)C(OCCOC)c2cc3ccccc3nc2-1` (stereo partly shown) [Example 43, 5-(2'-methoxyethoxy)camptothecin], the GI50 in data set [1] (setting [2]) was determined as 2.23 µM.
For `CCc1c2c(nc3ccc(O)cc13)-c1cc3c(c(=O)n1C2)COC(=O)[C@]3(O)CC` [SN-38, 7-ethyl-10-hydroxycamptothecin], the “percentage (%) of lactone form at equilibrium” value on Human Serum Albumin was “higher percentage (%) of lactone form at equilibrium than 20(S) camptothecin of the formula 3 and 9-aminocamptothecin of the formula 6”.
